Results: PMC3914206

Columns and labels:
Assay type in all cases: binding
Set-up in all cases: KINOMEscan: ABL1(F317L)-phosphorylated / KINOMEscan: ABL1(H396P)-nonphosphorylated / KINOMEscan: ABL1(H396P)-phosphorylated / KINOMEscan: ABL1(M351T)-phosphorylated / KINOMEscan: ABL1(T315I)-phosphorylated / KINOMEscan: ABL1-nonphosphorylated / KINOMEscan: ABL1-phosphorylated / KINOMEscan: ACVR2A / KINOMEscan: ACVR2B / KINOMEscan: ADCK3 / KINOMEscan: ADCK4 / KINOMEscan: AKT1 / KINOMEscan: AKT3 / KINOMEscan: ALK / KINOMEscan: ARK5 / KINOMEscan: AURKA / KINOMEscan: AURKC / KINOMEscan: BIKE / KINOMEscan: BMPR1A / KINOMEscan: BMPR1B / KINOMEscan: BMX / KINOMEscan: BRK / KINOMEscan: BRSK1 / KINOMEscan: BRSK2 / KINOMEscan: CAMK1 / KINOMEscan: CAMK1D / KINOMEscan: CAMK1G / KINOMEscan: CAMK2A / KINOMEscan: CAMK2B / KINOMEscan: AAK1 / KINOMEscan: CAMK2D / KINOMEscan: CAMK2G / KINOMEscan: ABL1(F317I)-nonphosphorylated / KINOMEscan: ABL1(F317I)-phosphorylated / KINOMEscan: ABL1(F317L)-nonphosphorylated: unit: % Ctrl
Details in all cases: Compound Concentration 10 µM
panel of 442 kinases [1] = target: T1, panel of 442 kinases (Homo sapiens, UniProt Q13555)
T1 construct: purchased KINOMEscan
Source text: (§1) We assessed the selectivity of members of this scaffold using the KINOMEscan methodology across a near comprehensive panel of 442 kinases [[18,27]].

panel of 442 kinases [2] = target: T2, panel of 442 kinases (Homo sapiens, UniProt Q9UQB9)
T2 construct: purchased KINOMEscan
T2 sequence (Q9UQB9 1-309): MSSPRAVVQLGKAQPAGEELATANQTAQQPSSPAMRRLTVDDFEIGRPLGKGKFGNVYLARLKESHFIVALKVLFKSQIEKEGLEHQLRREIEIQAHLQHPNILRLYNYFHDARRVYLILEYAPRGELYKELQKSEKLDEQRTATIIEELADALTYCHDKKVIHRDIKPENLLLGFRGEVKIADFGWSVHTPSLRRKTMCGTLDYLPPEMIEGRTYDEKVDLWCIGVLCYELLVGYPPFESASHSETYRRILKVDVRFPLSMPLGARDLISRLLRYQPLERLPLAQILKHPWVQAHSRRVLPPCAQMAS
Source text: as §1

panel of 442 kinases [3] = target: T3, panel of 442 kinases (Homo sapiens, UniProt P07949)
T3 construct: purchased KINOMEscan
Source text: as §1

T1 sequence (Q13555 whole entry): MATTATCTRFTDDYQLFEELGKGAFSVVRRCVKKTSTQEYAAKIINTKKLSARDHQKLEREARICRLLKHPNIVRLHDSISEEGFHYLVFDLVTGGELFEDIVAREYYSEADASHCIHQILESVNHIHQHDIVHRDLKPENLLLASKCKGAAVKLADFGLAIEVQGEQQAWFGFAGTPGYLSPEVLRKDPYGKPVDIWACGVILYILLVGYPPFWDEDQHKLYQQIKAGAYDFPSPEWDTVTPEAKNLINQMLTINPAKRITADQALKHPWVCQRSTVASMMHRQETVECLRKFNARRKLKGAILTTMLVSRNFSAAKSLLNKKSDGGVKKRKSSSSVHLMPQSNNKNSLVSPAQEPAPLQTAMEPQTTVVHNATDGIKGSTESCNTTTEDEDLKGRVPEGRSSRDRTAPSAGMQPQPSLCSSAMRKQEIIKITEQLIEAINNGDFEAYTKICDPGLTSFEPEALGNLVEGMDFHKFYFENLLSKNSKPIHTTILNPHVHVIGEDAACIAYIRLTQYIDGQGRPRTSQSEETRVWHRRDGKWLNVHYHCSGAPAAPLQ
T3 sequence (P07949 29-1114): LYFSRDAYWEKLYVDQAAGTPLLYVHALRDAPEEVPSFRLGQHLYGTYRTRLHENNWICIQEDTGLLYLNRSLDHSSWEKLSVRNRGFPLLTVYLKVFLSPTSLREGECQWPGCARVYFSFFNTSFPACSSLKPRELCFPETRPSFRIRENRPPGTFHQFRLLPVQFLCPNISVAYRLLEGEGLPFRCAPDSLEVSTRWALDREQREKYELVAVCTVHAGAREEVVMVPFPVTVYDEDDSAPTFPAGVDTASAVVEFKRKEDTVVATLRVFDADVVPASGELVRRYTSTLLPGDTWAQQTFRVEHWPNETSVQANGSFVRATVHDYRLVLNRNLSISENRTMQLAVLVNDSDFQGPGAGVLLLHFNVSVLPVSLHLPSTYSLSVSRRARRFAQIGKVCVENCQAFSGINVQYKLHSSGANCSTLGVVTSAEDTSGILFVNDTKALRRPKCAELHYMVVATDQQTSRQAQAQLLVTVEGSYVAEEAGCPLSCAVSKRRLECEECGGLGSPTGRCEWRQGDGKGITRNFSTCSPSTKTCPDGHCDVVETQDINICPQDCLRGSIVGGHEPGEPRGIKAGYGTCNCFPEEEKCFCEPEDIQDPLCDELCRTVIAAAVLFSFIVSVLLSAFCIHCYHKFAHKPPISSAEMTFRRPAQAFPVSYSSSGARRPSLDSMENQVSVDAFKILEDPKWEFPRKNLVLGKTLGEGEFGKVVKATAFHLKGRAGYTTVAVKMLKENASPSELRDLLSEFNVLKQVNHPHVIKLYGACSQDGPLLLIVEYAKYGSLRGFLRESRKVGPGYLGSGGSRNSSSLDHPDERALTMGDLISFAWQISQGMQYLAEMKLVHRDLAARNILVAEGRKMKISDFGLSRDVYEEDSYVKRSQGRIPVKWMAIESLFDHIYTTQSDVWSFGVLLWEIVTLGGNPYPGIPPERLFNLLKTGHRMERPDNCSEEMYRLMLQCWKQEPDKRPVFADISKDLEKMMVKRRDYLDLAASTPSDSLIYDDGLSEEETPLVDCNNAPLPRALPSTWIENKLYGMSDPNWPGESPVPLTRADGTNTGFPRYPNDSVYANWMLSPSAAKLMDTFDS

SMILES | KINOMEscan: CAMK2G (panel of 442 kinases [1]) | KINOMEscan: AURKC (panel of 442 kinases [2]) | KINOMEscan: RET (panel of 442 kinases [3])
COc1cc(C(=O)N2CCC(N3CCN(C)CC3)CC2)ccc1Nc1ncc2c(n1)N1CCc3cccc(c31)C(=O)N2C [Compound 24] | 76 | 50 | 
CCOc1cc(C(=O)N2CCC(N3CCN(C)CC3)CC2)ccc1Nc1ncc2c(n1)N(C1CCCC1)c1ccccc1C(=O)N2C [Compound 26] | 94 | 66 | 100
COc1cc(C(=O)N2CCC(N3CCN(C)CC3)CC2)ccc1Nc1ncc2c(n1)N(C1CCCC1)c1ccccc1C(=O)N2C [Compound 25, 11-cyclopentyl-2-((2-methoxy-4-(4-(4-methylpiperazin-1-yl)piperidine-1-carbonyl)phenyl)amino)-5-methyl-5H-benzo[e]pyrimido[5,4-b][1,4]diazepin-6(11H)-one] | 98 | 38 | 100
COc1cc(C(=O)N2CCC(N3CCN(C)CC3)CC2)ccc1Nc1ncc2c(n1)N(C)c1ccccc1C(=O)N2C [15 (LRRK2-IN-1)] | 47 | 50 | 100
